Like-named read-outs stand apart in the source and are kept apart here. Some results are limits rather than exact numbers.

One experiment addresses T1, topoisomerase I (Topo I) (Homo sapiens, UniProt P11387).
T1 sequence (P11387 1-765): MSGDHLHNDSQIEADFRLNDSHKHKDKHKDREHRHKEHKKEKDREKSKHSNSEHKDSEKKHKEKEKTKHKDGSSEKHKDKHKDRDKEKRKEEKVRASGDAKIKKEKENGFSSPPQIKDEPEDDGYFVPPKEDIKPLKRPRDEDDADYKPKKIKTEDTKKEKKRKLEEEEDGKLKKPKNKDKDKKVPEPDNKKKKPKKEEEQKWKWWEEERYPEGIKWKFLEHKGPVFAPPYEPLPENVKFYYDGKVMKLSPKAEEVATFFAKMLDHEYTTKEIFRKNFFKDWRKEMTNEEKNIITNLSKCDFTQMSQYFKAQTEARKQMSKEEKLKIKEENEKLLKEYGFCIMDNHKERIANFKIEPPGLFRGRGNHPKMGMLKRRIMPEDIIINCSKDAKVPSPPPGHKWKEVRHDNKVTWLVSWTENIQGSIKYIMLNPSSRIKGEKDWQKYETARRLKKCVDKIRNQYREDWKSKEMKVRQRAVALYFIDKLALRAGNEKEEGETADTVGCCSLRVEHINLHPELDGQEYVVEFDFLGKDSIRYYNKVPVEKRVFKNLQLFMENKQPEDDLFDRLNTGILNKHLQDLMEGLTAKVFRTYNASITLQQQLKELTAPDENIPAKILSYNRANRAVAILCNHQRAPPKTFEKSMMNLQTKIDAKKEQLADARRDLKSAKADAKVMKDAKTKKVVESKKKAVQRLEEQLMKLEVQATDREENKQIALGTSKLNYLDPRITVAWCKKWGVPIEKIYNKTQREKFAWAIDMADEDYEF
The experiment is described as follows: Topo I enzyme-inhibitory activity by agarose-gel electrophoresis (plasmid relaxation). The class given is biochemical. The text has this: Test Example 1. Determination of Topo I Enzyme-Inhibitory Activity by Agarose-Gel Electrophoresis
Principle: Type-I topoisomerase (Topo I) relaxes positive and negative supercoils by introducing transient single-strand breaks and forming reversible cleavage complexes (Topo I-DNA covalent complexes). Gel electrophoresis can resolve DNA species of identical molecular weight but different topology: supercoiled plasmid migrates fastest, whereas the nicked, relaxed form moves more slowly. Quantifying the decrease in supercoiled DNA therefore provides a direct measure of Topo I activity.
Experimental Procedure: A 1× reaction buffer was prepared (20 mM Tris-HCl pH 7.5, 200 mM NaCl, 0.25 mM EDTA, 5 % (v/v) glycerol, 0.5 µg pNO1 plasmid substrate). Test compounds (5 % DMSO final) were added to the buffer, followed by Topo I enzyme (0.75 U per reaction). After gentle mixing, reactions were incubated at 37 °C for 30 min. Positive (enzyme + vehicle) and negative (no enzyme) controls were included in parallel. Reactions were terminated by adding STEB buffer and chloroform/iso-amyl alcohol (24:1, v/v), vortexed and centrifuged for 2 min. The aqueous (upper) phase was loaded onto a 1 % (w/v) agarose gel, electrophoresed for 1-2 h, stained with GelRed, and imaged under UV trans-illumination.
Data Analysis: Band intensities of supercoiled DNA were quantified with image-analysis software. Relaxation activity (%) was calculated as (Max-Sample)/ (Max-Min)*100%, where Max = intensity of the no-enzyme negative control, Min = intensity of the vehicle-only positive control, and Sample = intensity of the compound-treated lane. Dose-response data (compound concentration, X; relaxation activity %, Y) were fitted in Excel or GraphPad Prism 5.0 using the four-parameter logistic equation: Y=Bottom + (Top-Bottom)/(1+(IC50/X)[…]) to derive the IC50 value for each compound.
Table 1. Compound-mediated inhibition of topoisomerase I (Topo I) enzymatic activity

A further experiment relates to HCT116 cells. The experiment is described as follows: Inhibition of cell proliferation by CTG (CellTiter-Glo) luminescence assay. The class given is cell-based. The note with it: Homo sapiens, read-out: HCT116, IC50. The source says: Test Example 2. Determination of Compound-Mediated Inhibition of Cell Proliferation by CTG (CellTiter-Glo) Luminescence Assay
Principle: The Promega CellTiter-Glo™ luciferase reagent was used. Luciferase consumes ATP to generate light; metabolically active cells continuously produce ATP through respiration and other processes. After adding an equal volume of CellTiter-Glo™ reagent to the culture medium, the resulting luminescence is directly proportional to the ATP content, which in turn correlates with the number of viable cells. Thus, the assay quantifies compound-induced suppression of cell proliferation.
Experimental Procedure: HCT116 cells (ATCC) were revived in complete medium (McCoy's 5a + 10 % FBS). After two passages, exponentially growing cells were harvested, counted, and resuspended to the appropriate density. A 100 µL aliquot of cell suspension (2 000 cells per well) was seeded into 96-well plates and incubated overnight (37 °C, 5 % CO2, 100 % relative humidity). Test compounds were dissolved in DMSO to prepare 10 mM stock solutions and serially diluted 1:3 in DMSO to generate nine concentration steps. Each DMSO solution was further diluted 200-fold into medium; 25 µL of the resulting solutions were added to the cell plates (final DMSO concentration […]). After 72 h incubation (37 °C, 5 % CO2), 50 µL of CellTiter-Glo reagent was added per well. Plates were shaken gently, incubated for 30 min at room temperature in the dark, and luminescence was read on an EnVision multimode reader. Percent inhibition was calculated as: Inhibition % = (1−As/Ac) × 100, [formula] where As = signal from compound-treated wells and Ac = signal from DMSO-only control wells. Concentration-response data were fitted in Excel with the XLfit add-in using the four-parameter logistic equation: Y = Bottom + (Top−Bottom)/[1+((IC50/X))^(∧)HillSlope], [formula] to derive the IC50 value for each compound. Table 2. IC50 of compounds
A general note: In ATP-based viability assays light output follows the ATP content of the culture.

[1] abbreviates: 0.75 U Topo I, pNO1 plasmid, 37 °C, 30 min; compounds listed by group (Group A / Group B); read-out: inhibition of topoisomerase I (Topo I) enzymatic activity, IC50.
[2] abbreviates: HCT-116, 72 h incubation, CellTiter-Glo.
Where [3] appears, read: read-out: inhibition of topoisomerase I (Topo I) enzymatic activity, IC50; 0.75 U Topo I, pNO1 plasmid, 37 °C, 30 min; compounds listed by group (Group A / Group B).

Regarding `CC[C@@]1(O)C(=O)OCc2c1cc1n(c2=O)Cc2c-1c(=O)c1ccccc1n2C` [Example 1, (S)-4-ethyl-4-hydroxy-11-methyl-1,12-dihydro-14H-pyrano[3,4:6,7]indolizino[2,1 - b]quinoline-3,6,14(4H,11H)-trione], the IC50 (commonly the point on the concentration scale where inhibition reaches its midpoint) is less than 200 nM on topoisomerase I (Topo I) (setting [1]) and less than 20 nM in the experiment with HCT116 cells (setting [2]).

As for `CC[C@@]1(O)C(=O)OCc2c1cc1n(c2=O)Cc2c-1c(=O)c1cc(F)c(F)cc1n2C` [Example 5, (S)-4-ethyl-8,9-difluoro-4-hydroxy-11-methyl-1,12-dihydro-14H-pyrano[3',4':6,7]indolizino[2,1-b]quinoline-3,6,14(4H,11H)-trione], the results for the concentration for half-maximal inhibition (IC50) at topoisomerase I (Topo I) (setting [1]) and in the experiment on HCT116 cells (setting [2]) were less than 200 nM and less than 20 nM, respectively. For `CC[C@@]1(O)C(=O)OCc2c1cc1n(c2=O)Cc2c-1c(=O)c1cc(F)ccc1n2C` [Example 6, (S)-4-ethyl-8-fluoro-4-hydroxy-11-methyl-1,12-dihydro-14H-pyrano[3',4':6,7]indazino[2,1-b]quinoline-3,6,14(4H,11H)-trione], the IC50 was less than 200 nM at topoisomerase I (Topo I) (setting [1]) and less than 20 nM in the experiment with HCT116 cells (setting [2]). As to `CC[C@@]1(O)C(=O)OCc2c1cc1n(c2=O)Cc2c-1c(=O)c1cc(F)cc(OC)c1n2C` [Example 10, (S)-4-ethyl-8-fluoro-4-hydroxy-10-methoxy-11-methyl-1,12-dihydro-14H-pyrano[3,4:6,7]indolizino[2,1-b]quinoline-3,6,14 (4H,11H)-trione], the IC50 at topoisomerase I (Topo I) (setting [3]) is less than 200 nM; in the experiment with HCT116 cells (HCT-116, 72 h), less than 20 nM.

With `CC[C@@]1(O)C(=O)OCc2c1cc1n(c2=O)Cc2c-1c(=O)c1cc(F)cnc1n2C` [Example 19, (S)-7-ethyl-3-fluoro-7-hydroxy-14-methyl-10,14-dihydro-11H-pyrano[3',4':6,7]indolizino[2,1-b][1,8]diazepine-5,8,11(7H,13H)-trione], the IC50 is 200 to 500 nM at topoisomerase I (Topo I) (setting [3]) and less than 20 nM in the experiment on HCT116 cells (HCT-116, 72 h).

`CCOCCc1cc(F)cc2c(=O)c3c(n(C)c12)Cn1c-3cc2c(c1=O)COC(=O)[C@]2(O)CC` [Example 23, (S)-10-(2-ethoxyethyl)-4-ethyl-8-fluoro-4-hydroxy-11-methyl-1,12-dihydro-14H-pyrano[3,4:6,7]indolizino[2,1-b]quinoline-3,6,14 (4H,11H)-trione]: the half-maximal inhibitory concentration (IC50) was 200 to 500 nM on topoisomerase I (Topo I) (setting [3]) and less than 20 nM with HCT116 cells (HCT-116, 72 h). In the same order, the values of `CC[C@@]1(O)C(=O)OCc2c1cc1n(c2=O)Cc2c-1c(=O)c1cc(F)cc(F)c1n2C` [Example 24, (S)-4-ethyl-8,10-difluoro-4-hydroxy-11-methyl-1,12-dihydro-14H-pyrano[3,4:6,7]indolizino[2,1-b]quinoline-3,6,14(4H,11H)-trione] are less than 200 nM and less than 20 nM. `CC[C@@]1(O)C(=O)OCc2c1cc1n(c2=O)Cc2c-1c(=O)c1cc(F)ccc1n2C(C)C` [Example 36, (S)-4-ethyl-8-fluoro-4-hydroxy-11-isopropyl-1,12-dihydro-14H-pyrano[3',4':6,7]indolizino[2,1-b]quinoline-3,6,14(4H,11H)-trione]: the IC50 is less than 200 nM at topoisomerase I (Topo I) (setting [3]) and less than 20 nM with HCT116 cells (HCT-116, 72 h).

In the case of `CC[C@@]1(O)C(=O)OCc2c1cc1n(c2=O)Cc2c-1c(=O)c1cc(F)ccc1n2C1CC1` [Example 37, (S)-4-ethyl-8-fluoro-4-hydroxy-11-cyclopropyl-1,12-dihydro-14H-pyrano[3',4':6,7]indolizino[2,1-b]quinoline-3,6,14(4H,11H)-trione], the IC50 on topoisomerase I (Topo I) (setting [3]) was less than 200 nM; in the experiment on HCT116 cells (HCT-116, 72 h) it was less than 20 nM.

Regarding `CC[C@@]1(O)C(=O)OCc2c1cc1n(c2=S)Cc2c-1c(=O)c1cc(F)cc(C)c1n2C` [Example 39, (S)-4-ethyl-8-fluoro-4-hydroxy-10,11-dimethyl-14-thioxo-12,14-dihydro-1H-pyrano[3',4':6,7]indolizino[2,1-b]quinoline-3,6(4H, 11H)-dione], the IC50 on topoisomerase I (Topo I) (setting [1]) is less than 200 nM; in the experiment on HCT116 cells (setting [2]) it was less than 20 nM. In the same order, the values of `CC[C@@]1(O)C(=O)OCc2c1cc1n(c2=O)Cc2c-1c(=O)c1cc(F)ccc1n2-c1cnn(C)c1` [Example 57, (S)-4-ethyl-8-fluoro-4-hydroxy-11-(1-methyl-1H-pyrazol-4-yl)-1H-pyrano[3',4':6,7]indolizino[2,1-b]quinoline-3,6,14(4H,11H,12H) -trione] are 200 to 500 nM and less than 20 nM. In the same order, the values of `CC[C@@]1(O)C(=O)OCc2c1cc1n(c2=O)Cc2c-1c(=O)c1cc(F)ccc1n2-c1cccnc1` [Example 60, (S)-4-ethyl-8-fluoro-4-hydroxy-11-(pyridin-3-yl)-1H-pyrano[3',4':6,7]indolizino[2,1-b]quinoline-3,6,14(4H,11H,12H)-trione] are 200 to 500 nM and less than 20 nM. Regarding `CC[C@@]1(O)C(=O)OCc2c1cc1n(c2=O)Cc2c-1c(=O)c1cc(F)ccc1n2-c1cn(C2CC2)nc1C(C)O` (stereo partly drawn) [Example 63, (4S)-11-(1-cyclopropyl-3-(1-hydroxyethyl)-1H-pyrazol-4-yl)-4-ethyl-8-fluoro-4-hydroxy-1,12-dihydro-14H-pyrano[3,4:6,7] indolizino[2,1-b]quinoline-3,6,14(4H,11H)-trione], the IC50 was 200 to 500 nM at topoisomerase I (Topo I) (setting [3]) and less than 20 nM in the experiment with HCT116 cells (HCT-116, 72 h). For the compound `CC[C@@]1(O)C(=O)OCc2c1cc1n(c2=O)Cc2c-1c(=O)c1cc(F)ccc1n2CCN1CCCC1` [Example 193], the IC50 on topoisomerase I (Topo I) (setting [3]) lay within 200 to 500 nM.

In the case of `CC[C@@]1(O)C(=O)OCc2c1cc1n(c2=O)Cc2c-1c(=O)c1cc(F)c(CO)cc1n2C1CCCC1` [Example 291, (S)-11-cyclopentyl-4-ethyl-8-fluoro-4-hydroxy-9-(hydroxymethyl)-1,12-dihydro-14H-pyrano[3,4:6,7]indolizino[2,1-b]quinoline-3,6,14(4H,11H)-trione], the IC50 at topoisomerase I (Topo I) (setting [1]) is 200 to 500 nM. Regarding `CC[C@@]1(O)C(=O)OCc2c1cc1n(c2=O)Cc2c-1c(=O)c1cc(F)c(CC(C)O)cc1n2C1CCCC1` (stereo partly drawn) [Example 292, (4S)-11-cyclopentyl-4-ethyl-8-fluoro-4-hydroxy-9-(2-hydroxypropyl)-1,12-dihydro-14H-pyrano[3,4:6,7]indolizino[2,1-b]quinoline-3,6,14(4H,11H)-trione], the half-inhibitory concentration (IC50) on topoisomerase I (Topo I) (setting [1]) fell in the range of 200 to 500 nM.

Source of the values: patent EP4778929A1, “NOVEL TYPE I TOPOISOMERASE INHIBITOR, AND PREPARATION METHOD THEREFOR AND USE THEREOF” (priority 2023, dated 2025).
